The compounds below were run against human Nav1.7 (Homo sapiens (Human), UniProt Q15858) (assay: Human Nav1.7 inhibitory activity evaluation (automated patch clamp QPatch16X, HEK293A cells stably expressing human Nav1.7 and human Navβ1)). Settings: HEK293A cells stably expressing human Nav1.7 and human Navβ1, automated patch clamp QPatch16X.
Format: cell-based
Protocol: Test Example 1: Human Nav1.7 Inhibitory Activity Evaluation
A cell line in which human Nav1.7 and human Navβ1 subunits were stably expressed in HEK293A cells was used. Dulbecco's Modified Eagle Medium (DMEM) supplemeted with 10% fetal bovine serum, 600 μg/ml geneticin, and 2 μg/ml blasticidin S were used as culture medium under the conditions of 37° C. and 5% CO2 in T175 flasks to carry out culturing. When 60-80% confluence was reached, the cells were detached and a cell suspension of about 0.5-5.0×10^6 cells/mL was prepared. The amount of current through human Nav1.7 was recorded using a fully automatic patch clamp device QPatch16X (Sophion Biosciences) at room temperature. As the extracellular solution, the solution of 145 mM NaCl, 4 mM KCl, 1 mM MgCl2, 2 mM CaCl2, 10 mM Glucose, 10 mM 4-(2-hydroxyethyl)-1-piperazine ethanesulfonic acid (HEPES) at pH 7.4 was used. As the intracellular solution, the solution of 135 mM CsF, ⅕ mM glycol ether diaminetetraacetic acid (EGTA)/CsOH, 10 mM HEPES, 10 mM NaCl at pH 7.3 was used. The test compounds were dissolved in dimethyl sulfoxide (DMSO) and diluted with the extracellular solution to attain the DMSO concentration of 0.1% at the time of assay.
The current response was obtained at a sampling frequency of 25 kHz, and noise was removed with a 3 kHz low-pass filter. The holding potential was −100 mV. Correction of the leakage current was carried out by applying a step pulse of −120 mV before the test pulse. In order to investigate inhibitory action of the test compound, the following test pulse was given: Namely, after depolarizing pulse of −10 mV was applied for 50 milliseconds, it was fixed at −120 mV for 500 milliseconds; a potential at which about 30-40% of the channel was inactivated was maintained for 15 seconds, then fixed again at −120 mV for 100 milliseconds, and finally a −10 mV depolarization pulse was given for 50 milliseconds. Test pulses were given before and after the test compound addition.
The inhibitory activity of the test compound was determined based on the amount of inward current generated by the second depolarization pulse, and the 50% inhibitory concentration (IC50) was calculated from the concentration-response curve.

Sequence of human Nav1.7 (Q15858 whole entry): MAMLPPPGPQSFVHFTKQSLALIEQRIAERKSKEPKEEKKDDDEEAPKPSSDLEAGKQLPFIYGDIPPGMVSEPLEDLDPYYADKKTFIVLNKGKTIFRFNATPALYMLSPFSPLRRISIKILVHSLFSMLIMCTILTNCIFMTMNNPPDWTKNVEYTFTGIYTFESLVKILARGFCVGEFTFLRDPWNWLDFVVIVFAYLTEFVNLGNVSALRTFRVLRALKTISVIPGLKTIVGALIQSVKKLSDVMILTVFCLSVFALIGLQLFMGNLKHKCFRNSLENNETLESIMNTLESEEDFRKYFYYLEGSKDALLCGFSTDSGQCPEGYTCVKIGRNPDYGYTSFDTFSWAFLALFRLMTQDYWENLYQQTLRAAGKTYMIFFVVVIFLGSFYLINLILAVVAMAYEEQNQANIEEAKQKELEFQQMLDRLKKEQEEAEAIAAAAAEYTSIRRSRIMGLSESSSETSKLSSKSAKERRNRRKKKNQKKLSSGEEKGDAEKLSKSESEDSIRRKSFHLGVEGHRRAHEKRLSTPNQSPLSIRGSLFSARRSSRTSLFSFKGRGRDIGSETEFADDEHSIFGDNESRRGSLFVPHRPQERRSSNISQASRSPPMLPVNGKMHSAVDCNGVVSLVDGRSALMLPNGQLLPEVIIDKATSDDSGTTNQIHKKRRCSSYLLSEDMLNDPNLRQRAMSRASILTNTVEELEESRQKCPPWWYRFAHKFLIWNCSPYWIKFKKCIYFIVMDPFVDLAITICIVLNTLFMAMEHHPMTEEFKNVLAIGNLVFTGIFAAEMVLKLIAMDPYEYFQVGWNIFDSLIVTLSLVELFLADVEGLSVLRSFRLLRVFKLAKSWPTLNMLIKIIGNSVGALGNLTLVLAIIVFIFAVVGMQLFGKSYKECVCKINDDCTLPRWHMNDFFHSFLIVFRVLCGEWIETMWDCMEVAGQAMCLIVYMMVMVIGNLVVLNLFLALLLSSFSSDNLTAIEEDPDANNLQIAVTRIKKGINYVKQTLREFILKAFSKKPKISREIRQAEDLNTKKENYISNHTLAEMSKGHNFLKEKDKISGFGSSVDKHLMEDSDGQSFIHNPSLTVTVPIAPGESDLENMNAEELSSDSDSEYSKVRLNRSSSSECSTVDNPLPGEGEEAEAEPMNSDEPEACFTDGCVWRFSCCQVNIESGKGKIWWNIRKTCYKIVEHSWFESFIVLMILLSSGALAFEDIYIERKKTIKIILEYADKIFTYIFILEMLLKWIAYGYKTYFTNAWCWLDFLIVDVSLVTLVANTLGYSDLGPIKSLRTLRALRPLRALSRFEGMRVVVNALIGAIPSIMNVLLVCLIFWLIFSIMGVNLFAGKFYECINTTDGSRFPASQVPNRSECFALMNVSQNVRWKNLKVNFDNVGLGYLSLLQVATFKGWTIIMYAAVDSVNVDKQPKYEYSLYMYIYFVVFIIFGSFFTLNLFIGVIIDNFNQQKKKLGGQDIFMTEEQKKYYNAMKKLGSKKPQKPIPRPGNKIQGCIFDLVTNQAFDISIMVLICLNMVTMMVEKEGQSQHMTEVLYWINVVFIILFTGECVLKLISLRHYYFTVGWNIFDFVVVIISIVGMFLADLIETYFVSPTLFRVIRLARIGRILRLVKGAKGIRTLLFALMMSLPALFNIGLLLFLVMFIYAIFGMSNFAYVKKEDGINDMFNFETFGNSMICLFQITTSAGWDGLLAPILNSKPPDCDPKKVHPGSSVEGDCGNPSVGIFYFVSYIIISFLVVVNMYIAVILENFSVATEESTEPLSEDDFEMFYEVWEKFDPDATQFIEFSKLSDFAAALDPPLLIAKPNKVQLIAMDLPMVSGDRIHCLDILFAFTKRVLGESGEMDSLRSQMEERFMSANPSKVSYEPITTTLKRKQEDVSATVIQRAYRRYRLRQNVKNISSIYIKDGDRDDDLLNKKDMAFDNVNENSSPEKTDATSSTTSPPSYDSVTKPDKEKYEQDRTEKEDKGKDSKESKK
Sequence of human Nav1.7 (Q07699 19-218 partner): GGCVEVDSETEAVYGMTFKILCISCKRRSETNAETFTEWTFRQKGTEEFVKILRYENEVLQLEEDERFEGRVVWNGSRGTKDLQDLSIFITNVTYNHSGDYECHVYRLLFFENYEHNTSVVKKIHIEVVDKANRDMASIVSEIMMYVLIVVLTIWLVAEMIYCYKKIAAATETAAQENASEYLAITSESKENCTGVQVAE

IC50	Structure (SMILES)
< 1 µM	C[C@H]1CCn2nc(C(=O)N[C@H]3COc4ccc(Br)cc4C3)cc2O1 [Example 88]
< 10 µM	N#Cc1ccc(-c2ccc3c(c2)C[C@@H](NC(=O)c2cc4n(n2)CCC(COCC2CC2)O4)CO3)cn1 (stereo partly drawn) [Example 107]
< 1 µM	O=C(N[C@H]1COc2ccc(CC(F)F)cc2C1)c1cc2n(n1)CCC(COC(F)F)O2 (single isomer, unassigned) [138 (isomer A)]
< 10 µM	CC(C)CCC1Cn2cc(C(=O)N[C@H]3COc4ccccc4C3)nc2CN1C (stereo partly drawn) [Example 50]
< 10 µM	CN1Cc2nc(C(=O)N3CC(Oc4cccc(C(F)(F)F)n4)C3)cn2CC1c1ccccc1 (stereo not drawn) [Example 63]

Same assay, conditions: human Nav1.7, automated patch clamp

IC50	Structure (SMILES)
< 10 µM	CCc1cccc(-c2c(C(=O)N[C@H]3COc4ccc(C#N)cc4C3)nn3c2COCC3)n1 [Example 516]
< 1 µM	O=C(N[C@H]1COc2ccc(CC(F)(F)F)cc2C1)c1cc2n(n1)CC(COCC(F)(F)F)O2 (single isomer, unassigned) [192 (isomer B)]
< 10 µM	O=C(N[C@H]1COc2ccc(Cl)cc2C1)c1nn2c(c1-c1ccccc1)CN(CC(F)(F)F)CC2 [Example 509]
< 10 µM	O=C(N[C@H]1COc2ccc(C(F)(F)F)cc2C1O)c1cc2n(n1)CC(CCOCC(F)(F)F)O2 (stereo partly drawn) [Example 589]
< 10 µM	O=C(N[C@H]1COc2ccc(C(F)(F)F)cc2C1)c1cc2n(n1)CCN(CC1CCOC1)C2 (stereo partly drawn) [Example 669]
< 1 µM	O=C(N[C@H]1COc2ccc(C(F)(F)F)cc2C1F)c1cc2n(n1)CCC(C1CCOC1)O2 (stereo partly drawn) [Example 613]
< 10 µM	O=C(NCC1COc2ccc(Cl)cc2C1)c1cc2n(n1)CCC(COC(F)(F)F)O2 (stereo not drawn) [Example 542]
< 1 µM	O=C(N[C@H]1COc2ccc(COC3CCC3)cc2C1)c1cc2n(n1)CCC(C(F)(F)F)O2 (stereo partly drawn) [Example 399]
< 1 µM	O=C(N[C@H]1COc2ccc(-c3cnn(CC(F)(F)F)c3)cc2C1)c1cc2n(n1)CCC(COCC1CC1)O2 (stereo partly drawn) [Example 430]
< 10 µM	N#CC1(COCC2CCn3nc(C(=O)N[C@H]4COc5ccc(C(F)(F)F)cc5C4)cc3O2)CC1 (stereo partly drawn) [Example 553]
< 1 µM	O=C(N[C@H]1COc2ccc(Cl)cc2C1)c1cc2n(n1)CCC(COCC1CCOCC1)O2 (stereo partly drawn) [Example 413]
< 1 µM	CC1(C)CCn2nc(C(=O)N[C@H]3COc4ccc(CCOC(F)(F)F)cc4C3)cc2O1 [Example 403]
< 1 µM	O=C(N[C@H]1COc2ccccc2C1)c1cn2c(n1)CCC(c1cccc(C(F)(F)F)n1)C2 (stereo partly drawn) [Example 314]
< 1 µM	O=C(N[C@H]1COc2ccc(CC(F)F)cc2C1)c1cc2n(n1)CCC(COCC1(F)CC1)O2 (stereo partly drawn) [Example 567]
< 1 µM	O=C(N[C@H]1COc2ccc(C(F)(F)F)cc2C1)c1nn2c(c1-c1cccc(F)n1)COCC2 [Example 513]
< 10 µM	O=C(c1cn2c(n1)CCC(c1cccnc1C(F)(F)F)C2)N1CCCC1c1ccccc1 (stereo not drawn) [Example 315]
< 1 µM	O=C(N[C@H]1COc2ccc(C(F)(F)F)cc2C1)c1cc2n(n1)CCC(COCC1(F)CC1)O2 (stereo partly drawn) [Example 533]
< 1 µM	CCOC(F)C1CCn2nc(C(=O)N[C@H]3COc4ccc(Cl)cc4C3)cc2O1 (stereo partly drawn) [Example 409]
< 1 µM	O=C(N[C@H]1COc2ccc(C(F)(F)F)cc2C1)c1cc2n(n1)CCC(CCOC(F)F)O2 (stereo partly drawn) [Example 433]

IC50	Structure (SMILES)
< 10 µM	O=C(N[C@H]1COc2ccc(C(F)(F)F)cc2C1F)c1cc2n(n1)CCN(C1CCOCC1)C2 (stereo partly drawn) [Example 637]
< 10 µM	CC(C)(c1ccccn1)N1CCn2nc(C(=O)N[C@H]3COc4ccc(C#N)cc4C3)cc2C1 [Example 501]
< 1 µM	O=C(N[C@H]1COc2ccc(C3CC3)cc2C1)c1cc2n(n1)CCC(C(F)F)O2 (stereo partly drawn) [Example 405]
< 1 µM	C=Cc1ccc2c(c1)C[C@@H](NC(=O)c1cc3n(n1)CCC(C(F)(F)F)O3)CO2 (stereo partly drawn) [Example 396]
< 1 µM	O=C(N[C@H]1COc2ccc(C(F)(F)F)cc2C1F)c1cc2n(n1)CCC(COCC(F)F)O2 (stereo partly drawn) [Example 624]
< 10 µM	O=C(N[C@H]1COc2ccc(C(F)(F)F)cc2C1O)c1cc2n(n1)CCN(CCOCC1CC1)C2 (stereo partly drawn) [Example 652]
< 10 µM	O=C(N[C@H]1COc2ccc(CC(F)F)cc2C1)c1cc2n(n1)CC(CC1CCOCC1)O2 (stereo partly drawn) [Example 564]
< 10 µM	CC(C)C1CCn2nc(C(=O)N[C@H]3COc4ccc(C#N)cc4C3)cc2O1 (stereo partly drawn) [Example 393]
< 10 µM	N#Cc1ccc2c(c1)C[C@@H](NC(=O)c1cc3n(n1)CC(CCOC(F)(F)F)O3)CO2 (single isomer, unassigned) [209 (isomer A)]
< 1 µM	O=C(NC1COc2ccc(F)c(F)c2C1)c1cc2n(n1)CC(CCOCC(F)(F)F)O2 (stereo not drawn) [Example 629]
< 10 µM	Cc1c(C(=O)N[C@H]2COc3ccc(Cl)cc3C2)nn2c1OC(C)(C)C2 [Example 446]
< 10 µM	O=C(N[C@H]1COc2ccc(C(F)(F)F)cc2C1)c1nn2c(c1-c1ccccn1)COCCC2 [Example 528]
< 1 µM	O=C(N[C@H]1COc2ccc(C(F)(F)F)cc2C1)c1cc2n(n1)CCC(C1CCOCC1)O2 (stereo partly drawn) [Example 583]
< 1 µM	O=C(N[C@H]1COc2ccc(CC(F)F)cc2C1)c1cc2n(n1)CC(CCOC(F)(F)F)O2 (stereo partly drawn) [Example 210]
< 1 µM	O=C(N[C@H]1COc2ccc(CC(F)F)cc2C1)c1cc2n(n1)CCC(C1CCOCC1)O2 (stereo partly drawn) [Example 586]
< 1 µM	N#Cc1ccc2c(c1)C[C@@H](NC(=O)c1cc3n(n1)CC(CCOCC1(C(F)(F)F)CC1)O3)CO2 (stereo partly drawn) [Example 465]
< 10 µM	N#Cc1ccc2c(c1)C[C@@H](NC(=O)c1cc3n(n1)CCC1(CCC1)O3)CO2 [Example 180]
< 10 µM	O=C(N[C@H]1COc2ccc(C(F)(F)F)cc2C1O)c1cc2n(n1)CCN(CCOCC(F)(F)F)C2 (stereo partly drawn) [Example 677]
< 1 µM	O=C(NC1COc2ccc(F)c(F)c2C1)c1cc2n(n1)CC(CCCOCC(F)F)O2 (stereo not drawn) [Example 640]

IC50	Structure (SMILES)
< 10 µM	O=C(N[C@H]1COc2ccc(Cl)cc2C1)c1cc2n(n1)CCN(CCOc1ccccn1)C2 [Example 274]
< 1 µM	O=C(N[C@H]1COc2ccc(-c3cnccn3)cc2C1)c1cc2n(n1)CCC(COCC1(C(F)(F)F)CC1)O2 (stereo partly drawn) [Example 435]
< 10 µM	Cc1cccc(-c2c(C(=O)N[C@H]3COc4ccc(C(F)(F)F)cc4C3)nn3c2NCCC3)n1 [Example 524]
< 10 µM	O=C(N[C@H]1COc2ccc(CC(F)F)cc2C1)c1cc2n(n1)CCC(CC1CCOCC1)O2 (stereo partly drawn) [Example 674]
< 10 µM	CN(C1CCc2nc(C(=O)N[C@H]3COc4ccccc4C3)cn2C1)S(=O)(=O)c1ccccc1 (stereo partly drawn) [Example 322]
< 1 µM	O=C(N[C@H]1COc2ccc(COCC(F)(F)F)cc2C1)c1cc2n(n1)CCC(COC1CCC1)O2 (stereo partly drawn) [Example 438]
< 10 µM	O=C(N[C@H]1COc2ccc(COCC(F)(F)F)cc2C1)c1cc2n(n1)CCC(CN1CCC(F)(F)C1)O2 (single isomer, unassigned) [154 (isomer A)]
< 10 µM	O=C(N[C@H]1COc2ccc(Cl)cc2C1)c1cc2n(n1)CCC(CF)O2 (stereo partly drawn) [Example 381]
< 10 µM	O=C(NC1COc2ccccc2C1)c1nn2c(c1-c1ccccc1)CCCC2 (stereo not drawn) [Example 347]
< 1 µM	O=C(N[C@H]1COc2ccc(Cl)cc2C1)c1cc2n(n1)CCC(C1CCOCC1)O2 (stereo partly drawn) [Example 584]
< 10 µM	N#Cc1ccc2c(c1)C[C@@H](NC(=O)c1cc3n(n1)CCC(CCOC(F)F)O3)CO2 (single isomer, unassigned) [146 (isomer A)]
< 1 µM	Cc1cccc(-c2c(C(=O)N[C@H]3COc4ccc(C(F)(F)F)cc4C3O)nn3c2COCC3)n1 (stereo partly drawn) [Example 580]
< 10 µM	O=C(N[C@H]1COc2ccc(C(F)(F)F)cc2C1O)c1cc2n(n1)CCC(COCC(F)(F)F)O2 (stereo partly drawn) [Example 561]
< 10 µM	C=Cc1cccc2c1CC(NC(=O)c1cn3c(n1)CCC(C(F)(F)F)C3)CO2 (stereo not drawn) [Example 293]
< 10 µM	N#Cc1ccc2c(c1)C[C@@H](NC(=O)c1cc3n(n1)CCC(CSCC(F)(F)F)O3)CO2 (stereo partly drawn) [Example 424]
< 10 µM	O=C(N[C@H]1COc2ccc(C(F)(F)F)cc2C1)c1cc2n(n1)CC(COCC1CC1)CO2 (stereo partly drawn) [Example 539]
< 10 µM	O=C(c1cc2n(n1)CCC(COCC1COC1)O2)N(CC1COC1)[C@H]1COc2ccc(-c3ccccn3)cc2C1 (stereo partly drawn) [Example 414]
< 10 µM	O=C(N[C@H]1COc2ccc(C(F)(F)F)cc2C1O)c1cc2n(n1)CC(CSCC(F)(F)F)O2 (stereo partly drawn) [Example 587]
< 10 µM	O=C(N[C@H]1COc2ccc(C(F)(F)F)cc2C1O)c1cc2n(n1)CC(CCCOCC(F)(F)F)O2 (stereo partly drawn) [Example 592]

Structure (SMILES)	IC50
O=C(N[C@H]1COc2ccc(Cl)cc2C1)c1cn2c(n1)CC(CNCC(F)(F)F)CO2 (stereo partly drawn) [Example 548]	< 10 µM

Reference: patent US12421225B2, “Heteroaromatic amide derivative and medicament containing the same” (KAKEN PHARMACEUTICAL CO., LTD., priority 2018, dated 2025)
